The test system of series [1] is southern armyworm (Spodopetra eridania Cramer). The series is described as follows: Mite/insect screen, Southern armyworm. It counts as in vivo. To be noted: sprayed leaves; for mortality at 200 ppm / mortality at 400 ppm: Spodoptera eridania, read-out: SAW results (percent mortality). The procedure, abridged:
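Southern armyworm larvae placed in Petri dishes with two excised squash leaves that had been sprayed to runoff (10 psi) with emulsified compound and air-dried for 1 h. Mortality in percent recorded after a standard exposure period; formulation acetone/alcohol plus Toximul R and S, water-diluted.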

For series [2], the system named is Erysiphe graminis tritici (powdery mildew). The experiment in a line: Plant pathology screen (Test 1), powdery mildew on wheat. To be noted: Blumeria graminis, in Triticum aestivum, foliar, read-out: POWD MDEW control rating.
Protocol: The test compounds were formulated for application by dissolving 50 mg of the compound into 1.25 ml of solvent. The solvent was prepared by mixing 50 ml of "Tween 20" (polyoxyethylene (20) sorbitan monolaurate emulsifier) with 475 ml of acetone and 475 ml of ethanol. The solvent/compound solution was diluted to 125 ml with deionized water. The resulting formulation contains 400 ppm test chemical. Lower concentrations were obtained by serial dilution with the solvent-surfactant mixture.
The formulated test compounds were applied by foliar spray.
The formulated technical compounds were sprayed on all foliar surfaces of the host plants (or cut berry) to past run-off. Single pots of each host plant were placed on raised, revolving pedestals in a fume hood. Test solutions were sprayed on all foliar surfaces. All treatments were allowed to dry and the plants were inoculated with the appropriate pathogens within 2-4 hours.
The effectiveness of test compounds in controlling disease was rated using the following scale.
In series [3] the test system is Pseudoperonospora cubensis (downy mildew). The series is described as follows: Plant pathology screen (Test 1), downy mildew on squash. To be noted: foliar, read-out: DOWN MDEW control rating.
Series [4] has as its system Botrytis cinerea (gray mold). The experiment in a line: Plant pathology screen (Test 1), gray mold on grape berries. To be noted: read-out: GRAY MOLD control rating.
For series [5], the system named is Pyricularia oryzae (rice blast). The experiment in a line: whole plant or invertebrate. To be noted: foliar, read-out: RICE BLAST control rating. It counts as in vivo.
Series [6] concerns Twospotted spider mites (Tetranychus urticae Koch). The experiment in a line: Mite/insect screen, twospotted spider mites. Particulars: sprayed leaves; for mortality at 200 ppm / mortality at 400 ppm: Tetranychus urticae, read-out: SM results (percent mortality). In kind it is in vivo. Summed up:
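Percent mortality, along with phytotoxicity, was read after standard exposure periods. Beforehand, mites established on both surfaces of squash cotyledons received a runoff spray (10 psi) of water-diluted compound formulated in acetone/alcohol with sulfonate/nonionic emulsifiers.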

For series [7], the system named is melon aphids (Aphis gossvpii Glover). The experiment in a line: Mite/insect screen, melon aphids. It counts as in vivo. To be noted: sprayed leaves; for mortality at 200 ppm / mortality at 400 ppm: Aphis, read-out: MA results (percent mortality). The procedure, abridged: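 Percent mortality of melon aphids was assessed after standard exposure periods. Infested squash cotyledons had been sprayed on both leaf surfaces until runoff at 10 psi with water-diluted test solutions. Compounds were formulated in acetone/alcohol (50:50) containing emulsifiers.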

The subject of series [8] is Southern corn rootworm (Diabrotica undecimpuctata howardi Barber). The experiment in a line: Mite/insect screen, corn rootworm. Particulars: soil; for mortality at 12 ppm / mortality at 24 ppm: Diabrotica, read-out: CRW results (percent mortality). It counts as in vivo. The procedure, abridged:
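Five 2-3 instar larvae per cup were placed on sandy soil (15 g, with presoaked corn seed) treated 6–12 h earlier with 1 mL test solution, an emulsified acetone/alcohol formulation diluted in water. Cups kept at 23° C; mortality and phytotoxicity assessed as percent after standard exposures.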

Series [9] concerns Puccinia recondita tritici (leaf rust). The series is described as follows: Plant pathology screen (Test 1), leaf rust on wheat. Particulars: in Triticum aestivum, foliar, read-out: LEAF RUST control rating.

Consider `Cc1oc2ncnc(OCCc3ccc(Cl)cc3)c2c1C` [Example 53, 4-[2-(4-chlorophenyl)ethoxy]-5,6-dimethylfuro[2,3-d]pyrimidine], for which the mortality at 200 ppm in [1] (rate 200 ppm), in series [6] (rate 200 ppm) and in series [7] (rate 200 ppm) was 0% throughout. Moreover, the mortality at 400 ppm worked out at 0% in [1] (rate 400 ppm), 30% in [6] (rate 400 ppm) and 60% in series [7] (rate 400 ppm). Besides, the pest or weed control at 400 µg/mL in [2] lay in the range of 20 to 89%; in series [3], 0 to 19%; in series [4], 0 to 19%; in series [5] it was 20 to 89%; in series [9], 90 to 100%. Moreover, in series [8] (CRW rate 12.00 ppm), the mortality at 12 ppm worked out at 0%. Also, the mortality at 24 ppm in [8] (CRW rate 24.00 ppm) was determined as 0%.
As to `Cc1oc2ncnc(OCCc3ccc(C(F)(F)F)cc3)c2c1C` [Example 54], the values for the mortality at 200 ppm in [1] (rate 200 ppm), in [6] (rate 200 ppm) and in [7] (rate 200 ppm) were 0%, 100% and 100%, respectively. The results for the mortality at 400 ppm in [1] (rate 400 ppm), in [6] (rate 400 ppm) and in [7] (rate 400 ppm) were 40%, 60% and 40%, respectively. Further, the pest or weed control at 400 µg/mL lay within 90 to 100% in [2]; 0 to 19% in [3]; 0 to 19% in series [4]; 90 to 100% in series [5]; 90 to 100% in series [9]. In addition, the mortality at 12 ppm in series [8] (CRW rate 12.00 ppm) amounted to 0%. The mortality at 24 ppm in series [8] (CRW rate 24.00 ppm) is 0%.
As to `Cc1oc2ncnc(OCCc3ccc4ccccc4c3)c2c1C` [Example 55, 5,6-dimethyl-4-[2-(2-naphthyl)ethoxy]furo[2,3-d]pyrimidine], the mortality at 200 ppm in [1] (rate 200 ppm), in [6] (rate 200 ppm) and in series [7] (rate 200 ppm) was 0% in each case. The mortality at 400 ppm in [1] (rate 400 ppm), in [6] (rate 400 ppm) and in series [7] (rate 400 ppm) was 0% throughout. The pest or weed control at 400 µg/mL in [2] lay in the range of 0 to 19%; in [3] it was 0 to 19%; in series [4] it was 0 to 19%; in series [5], 0 to 19%; in series [9], 20 to 89%. Moreover, the mortality at 12 ppm in series [8] (CRW rate 12.00 ppm) turned out to be 0%. In addition, the mortality at 24 ppm in series [8] (CRW rate 24.00 ppm) is 0%.
In the case of `Cc1oc2ncnc(Sc3ccc(F)cc3)c2c1C` [Example 56, 5,6-dimethyl-4-[(4-fluorophenyl)thio]furo[2,3-d]pyrimidine], the mortality at 200 ppm in series [1] (rate 200 ppm), in series [6] (rate 200 ppm) and in series [7] (rate 200 ppm) was 0% throughout. Besides, the mortality at 400 ppm in series [1] (rate 400 ppm), in series [6] (rate 400 ppm) and in series [7] (rate 400 ppm) was 0% in each case. The pest or weed control at 400 µg/mL in series [2] was 20 to 89%; in series [3], 0 to 19%; in series [4] it was 0 to 19%; in series [5] it was 20 to 89%; in [9], 20 to 89%. Further, the mortality at 12 ppm in series [8] (CRW rate 12.00 ppm) is 0%. Besides, the mortality at 24 ppm in [8] (CRW rate 24.00 ppm) was 0%.
`Cc1oc2ncnc(OCCN3C[C@@H](C)O[C@@H](C)C3)c2c1C` [Example 57, Cis-5,6-dimethyl-4-[2-(2,6-dimethyl-4-morpholinyl)ethoxy]furo[2,3-d]pyrimidine]: the mortality at 200 ppm in series [1] (rate 200 ppm), in series [6] (rate 200 ppm) and in series [7] (rate 200 ppm) was 0% each time. Moreover, the mortality at 400 ppm in [1] (rate 400 ppm), in series [6] (rate 400 ppm) and in series [7] (rate 400 ppm) was 0% each time. Besides, the “SAW results (percent mortality)” value in [1] (rate 200 ppm) and in series [1] (rate 400 ppm) was 0% in each case. Further, the pest or weed control at 400 µg/mL in series [2] is 0 to 19%; in series [3] it was 20 to 89%; in series [4], 0 to 19%; in series [5], 0 to 19%; in [9] it was 0 to 19%. Further, the “SM results (percent mortality)” value in series [6] (rate 200 ppm) and in series [6] (rate 400 ppm) was 0% in each case. In addition, the “MA results (percent mortality)” value in series [7] (rate 200 ppm) and in series [7] (rate 400 ppm) was 0% each time. In addition, the “CRW results (percent mortality)” value in series [8] (CRW rate 12.00 ppm) and in series [8] (CRW rate 24.00 ppm) was 0% each time. Moreover, in [8] (CRW rate 12.00 ppm), the mortality at 12 ppm was determined as 0%. The mortality at 24 ppm in series [8] (CRW rate 24.00 ppm) worked out at 0%.
As to `Cc1oc2ncnc(Oc3ccc(F)cc3Cl)c2c1C` [Example 59, 4-(2-chloro-4-fluorophenoxy)-5,6-dimethylfuro[2,3-d]pyrimidine], the mortality at 200 ppm in [1] (rate 200 ppm), in series [6] (rate 200 ppm) and in [7] (rate 200 ppm) was 0% each time. Besides, the mortality at 400 ppm in series [1] (rate 400 ppm), in series [6] (rate 400 ppm) and in [7] (rate 400 ppm) was 0% in each case. The pest or weed control at 400 µg/mL lay in the range of 90 to 100% in [2]; 0 to 19% in [3]; 0 to 19% in [4]; 0 to 19% in [5]; 20 to 89% in [9]. The mortality at 12 ppm in series [8] (CRW rate 12.00 ppm) was found to be 0%. Moreover, the mortality at 24 ppm in series [8] (CRW rate 24.00 ppm) amounted to 0%.
For the compound `Cc1oc2ncnc(OCC3CCC(C)O3)c2c1C` (centres unmarked) [Example 60, 5,6-dimethyl-4-[(2-methyloxolan-5-yl)methoxy]furo[2,3-d]pyrimidine], the mortality at 200 ppm in [1] (rate 200 ppm) turned out to be 0%; in [6] (rate 200 ppm), 0%; in series [7] (rate 200 ppm) it was 50%. In addition, the mortality at 400 ppm came to 0% in series [1] (rate 400 ppm), 80% in [6] (rate 400 ppm) and 60% in series [7] (rate 400 ppm). For the same compound, the pest or weed control at 400 µg/mL in [2] was 0 to 19%; in series [3], 90 to 100%; in series [4], 0 to 19%; in series [5] it was 0 to 19%; in series [9], 0 to 19%. For the same compound, in [8] (CRW rate 12.00 ppm), the mortality at 12 ppm worked out at 0%. Also, the mortality at 24 ppm in series [8] (CRW rate 24.00 ppm) came to 0%.
Take `Cc1oc2ncnc(OCCc3cccs3)c2c1C` [Example 61, 5,6-dimethyl-4-[2-(2-thienyl)ethoxy]furo[2,3-d]pyrimidine]: the mortality at 200 ppm was found to be 0% in series [1] (rate 200 ppm), 90% in series [6] (rate 200 ppm) and 90% in series [7] (rate 200 ppm). In addition, the mortality at 400 ppm in series [1] (rate 400 ppm), in series [6] (rate 400 ppm) and in [7] (rate 400 ppm) was 0% in each case. The pest or weed control at 400 µg/mL lay in the range of 90 to 100% in [2]; 90 to 100% in series [3]; 0 to 19% in series [4]; 20 to 89% in series [5]; 20 to 89% in series [9]. In addition, the mortality at 12 ppm in series [8] (CRW rate 12.00 ppm) came out at 0%. Besides, in series [8] (CRW rate 24.00 ppm), the mortality at 24 ppm is 0%.
Consider `Cc1ccc(Oc2ncnc3oc(C)c(C)c23)cc1` [Example 62, 5,6-dimethyl-4-(4-methylphenoxy)furo[2,3-d]pyrimidine], for which the mortality at 200 ppm in series [1] (rate 200 ppm), in [6] (rate 200 ppm) and in series [7] (rate 200 ppm) was 0% throughout. In addition, the mortality at 400 ppm in [1] (rate 400 ppm), in [6] (rate 400 ppm) and in series [7] (rate 400 ppm) was 0% each time. The pest or weed control at 400 µg/mL fell in the range of 90 to 100% in series [2]; 0 to 19% in series [3]; 0 to 19% in series [4]; 0 to 19% in series [5]; 0 to 19% in series [9]. For the same compound, the mortality at 12 ppm in series [8] (CRW rate 12.00 ppm) was found to be 0%. The mortality at 24 ppm in series [8] (CRW rate 24.00 ppm) is 0%.

In general, mortality refers to the share of the test organisms that died.

The record behind these values is US5486516A, “Furopyrimidine derivatives” (DowElanco, priority 1993, dated 1996).
